According to patent US20240240136A1, “SELECTIVE LYSIS OF MAMMALIAN EUKARYOTIC CELLS AND VISUALIZATION OF VIABLE BACTERIAL CELLS” (priority 2021, published 2024):
≈ marks a conversion by molar mass, not a printed value. Counter-ions that a name gives are not always drawn. Like-named read-outs stand apart in the source and are kept apart here.

Key:
E. coli ATCC 25922 = test: Antibiotic susceptibility testing with lysis buffer sample preparation and PB detection; assay type: cell-based; details: for MIC: E. coli ATCC 25922 spiked in blood and MH media, 16 hr of incubation; for growth of bacteria (OD value) with increase in antibiotic concentration: ampicillin 2 mg/L to 16 mg/L, gentamicin 0.5 mg/L to 8 mg/L, after 16 hr of incubation
Source text: FIGS. 7 and 8 show antibiotic susceptibility testing. The lysis buffer based sample preparation method combined with detection using PB formation was used to perform antibiotic susceptibility testing (recommended by EUCAST [15]) using different concentration of ampicillin and gentamicin in separate experiments, on E. coli ATCC 25922 bacteria strain (10^6 CFU/mL) spiked in blood (sample) and in MH media (positive control). ‘MH+Lysis buffer’ is used as negative control (NC). […] The corresponding decrease in PB colour formation on the filter paper with increase in ampicillin and gentamicin concentration is shown on top of each bar in the graphs of the FIG. 7 and FIG. 8, respectively. The MIC of ampicillin and gentamicin was determined to be 16 and 8 mg/L respectively, which was in agreement with the MIC range provided by EUCAST for E. coli ATCC 25922.

Compound	toxicity to bacteria (bacteria)	MIC (E. coli ATCC 25922; Escherichia coli, ATCC25922, read-out: MIC) [µg/mL]	growth of bacteria (OD value) with increase in antibiotic concentration (E. coli ATCC 25922)	MIC (E. coli ATCC 25922) [µg/mL]
O=C(O)CC(O)(CC(=O)O)C(=O)O [Citrate, ferric ammonium citrate]	not toxic	–	–	–
CC1(C)S[C@@H]2[C@H](NC(=O)[C@H](N)c3ccccc3)C(=O)N2[C@H]1C(=O)O [ampicillin]	–	16 (≈ 45.8 µM)	growth of bacteria decreased	–
gentamicin	–	–	growth of bacteria decreased	8
